Experimental data published in patent publication US20230001017A1, “FORMULATION FOR DELIVERY OF LUBRICIN GENE” (University of lowa Research Foundation, priority 2019, published 2023).
“Also recorded” adds a separate entry of the source.

Experiments:
[1] = tested on: PTOA after intra-articular fracture; assay: Porcine intra-articular fracture (IAF) model; format: in vivo, Yucatan minipig; conditions: 6 months post-IAF; intra-articular injection, 2.5 mM; anatomically-reduced joints
From the text: Yucatan Minipig Intra-articular Fracture Model. The Yucatan minipig model was developed to create an IAF of a reproducible severity without arthrotomy (Goetz et al., 2015). Under general anesthesia, an antero-medial approach to the hock joint, which is analogous to the human ankle joint, is made without disrupting the joint capsule. […] A stress-rising saw cut is made through the anterior tibial cortex, stopping 1-2 mm proximal to the subchondral bone. Two drill holes are made proximal to the saw cut into which a plate with a ball-joint is press fit. This ball joint interfaces with the instrumented sled on our impaction pendulum to rigidly support the tibia. The pendulum delivers a 40 J impact to the impaction tripod, driving the talus against the distal tibia causing a fracture of the distal tibia that is guided by the stress-rising saw cut. The result is a fracture fragment that consists of the anterior third of the distal tibial articular surface which is fixed using standard open reduction and internal fixation (ORIF) techniques (FIG. 12). […] In this study it is determined if lubricin gene therapy is an effective adjunct to amobarbital at the later time point, with or without residual incongruity; thus, all animals in this study survive to 12 months post-fracture. […]

[2] = tested on: PTOA after intra-articular fracture; conditions: 12 months post-IAF; cited from earlier work
[3] = Drug content of PLGA pellets; format: physicochemical
Method: Drug-loaded PLGA pellets were made by the hot-melt extrusion method (Leelakanok et al., […]; Danyuo et al., 2017). The goal was to load the maximum amount of drug possible in the pellets, which varies depending on the physical and chemical properties of the drugs and their behavior during the hot melt extrusion process. The maximum doses carried in PLGA pellets were 120±3.6 μg SSZ/mg pellet, 126±5 μg BAPN/mg pellet, and 250±3.2 μg CHP/mg pellet. In vitro tests confirmed the drugs and pellets were not cytotoxic (FIG. 40).
To determine the drug content of the pellets, the pellets were individually dissolved in chloroform (500 μL) and then mixed with 1 mL water to let the active ingredient migrate to the aqueous phase for at least 30 minutes. Drug elution profiles were characterized in vitro prior to implantation. Elution was measured by incubation of the pellets in phosphate buffered saline (PBS) at 37° C. in a shaking incubator set to 300 rpm (FIGS. 30B, C, and D) (Leelakanok et al., 2018; Danyuo et al., 2017). At each time point, PBS was removed from the pellets and replaced with fresh PBS. The amount of BAPN released at each time point was determined using a Fluorescamine assay followed by fluorescent spectroscopy (excitation wavelength: 390 nm, emission wavelength: 475 nm). The amount of CHP released at each time point was determined by hydroxyproline assay with spectrophotometric detection at 560 nm. The amount of SSZ released at each time point was determined using UV spectroscopy at 359 nm.

[4] = tested on: stifle joint stiffness; assay: Flexion-extension testing, rabbit stifle joint immobilization model; format: in vivo; conditions: 8 weeks after pellet implantation; for Maximum torque (joint stiffness): versus blank pellet control
From the text: (§1) The minimal number of animals was used to assess the specific aims of this study. Eight-rabbits were included in each of the treatment groups. […] Non-immobilized, untreated (normal) joints were included to provide normative baselines for joint mobility and histologic outcomes. The study included this normal group, as well as an immobilized group implanted with blank pellets (control), and immobilized groups treated with BAPN-, CHP-, or SSZ-loaded pellets. Joints were immobilized for 8 weeks to establish arthrofibrosis/capsule contracture as previously described (Nesterenko et al., 2009). Kirschner-wires (K-wires) were then removed and the various pellets implanted in the joint. After another 8 weeks the animals were euthanized, and the joints immediately tested for stiffness in extension and anterior-posterior (A-P) laxity. Capsule tissues were harvested for histology to evaluate in situ α-SMA expression and intima thickness, and for in vitro quantitation of cellular contractile activity and α-SMA expression.
Flexion-extension testing of normal and fibrotic joints was performed immediately after euthanasia, when limbs were disarticulated at the hip, stripped of skin and muscle, and fastened securely to a custom testing device equipped with a stepper motor and a 10 N load cell and controlled by a computer with a custom LabVIEW (National Instruments)-based program (FIG. 38) (Hildebrand et al., 2004; Nesterenko et al., 2009). Starting at 10° of extension, the limbs were driven to 170° of extension, and then returned to the starting position at a rotational velocity of 5°/s while continuously recording load and position. The starting extension angle was measured using a digital protractor (Barry Wixey Development) (FIG. 39). The peak torque at maximum extension (N-m) and dissipated energy (mJ) were derived as measures of joint stiffness. The increased hysteresis in immobilized joints arises from posterior capsule stiffening, which restricts extension, but not flexion.

[5] = tested on: ACL function; assay: Drawer test (A-P laxity), rabbit stifle joint immobilization model; format: in vivo; conditions: 8 weeks after pellet implantation; versus control
From the text: as §1, with “After another 8 weeks the animals were euthanized, and the joints immediately tested for stiffness in extension and anterior-posterior (A-P) laxity.” left out
After flexion-extension testing, a custom loading fixture was used to assess sagittal-plane laxity (drawer test), which is related to cruciate ligament integrity (Tochigi et al., 2011). […] Force and displacement data were continuously recorded through the sequence of tests, which consisted of three cycles to adjust leg placement for neutral starting position, followed by three cycles of data collection. […]

[6] = tested on: synovial intima; assay: Capsule histology, synovial intimal thickness; format: in vivo, rabbit; conditions: immobilization-induced increase, versus control
From the text: as §1
Portions of the posterior capsule were fixed in 10% neutral buffered formalin, and then processed for paraffin histology. […] Stained slides were imaged using an Olympus VS110 Virtual Microscope System, and intimal thickness was quantified at 5 random areas in the synovial intima using ImageJ.

[7] = tested on: joint capsule fibroblasts (JCFs); assay: Collagen gel compaction assay with JCFs from treated joints; format: cell-based, rabbit; conditions: for Maximum compaction at 48 hours: cells from immobilized treated joints versus control joints; for Compaction rate: first 12 hours of incubation, versus control
Method: (§2) Capsule tissues were harvested and transferred to a T-75 flask with 15 mL of Dulbecco's Modified Eagle Medium/Ham's Formula-12 Nutrient Mixture (DMEM/F-12) media containing 10% fetal bovine serum (FBS), 1% Penn Strep, and 1% Amphotericin B, and incubated at 37° C. in a 5% O2, 5% CO2 atmosphere for about 5 days to allow cells to migrate out of the tissue and adhere to the plate. The JCFs were cultured until confluent (about 2 weeks) before analysis.
Collagen gel compaction assays were used to determine the contractile activity of JCFs isolated from variously treated rabbits (Yuda & McCulloch, 2018). Collagen gels were produced by combining 10×PBS containing phenol red, 1N NaOH, and rat tail type I collagen (2 mg/mL) (Invitrogen), and JCFs to give a final cell concentration of 1×10^6 cells/mL. Five hundred μL of the collagen gel mixture was added to each well in a 24-well plate and allowed to polymerize for 30 minutes in an incubator. After 30 minutes, 500 μL of DMEM containing 10% FBS and 50 μg/mL ascorbic acid was added to each well. The plates were then incubated for 24 hours to allow the cells to generate a state of isometric tension. After 24 hours, the medium was replaced with 500 μL of fresh DMEM containing 10% FBS and ascorbic acid. After 48 hours, the gels were detached from the walls of the wells using a sterile spatula to allow the cells to freely compact the gels. Images were acquired over the next 48 hours, and the changes in gel cross sectional area were measured with ImageJ.
DNA assays were used to control for well-well variations in cell numbers that could affect the rate and extent of gel compaction. After 48 hours of compaction, the medium was aspirated and the gels were washed with PBS thrice. Five hundred μL of 0.25 mg/mL collagenase was added and the plates incubated at 37° C. overnight. Cell pellets were collected by centrifuging at 500 g for 10 minutes. The supernatants were discarded and the pellets frozen at −80° C. overnight. After thawing at room temperature, the pellets were suspended in 1.0 mL of RNAse/DNAse-free water and then sonicated for 30 minutes. DNA concentrations were measured using 0.2 μg/mL of Hoechst 33342 in 10×TNE buffer (100 mM Tris, 2.0 M NaCl, and 10 mM EDTA at pH 7.4) with excitation and emission wavelengths at 360 nm and 460 nm respectively with calf thymus DNA as a standard. A calibration curve was generated to relate DNA concentration to the number of JCFs in the cultures.

[8] = tested on: α-SMA expression in JCFs; assay: α-SMA immunostaining of JCFs from treated joints; format: cell-based, rabbit; conditions: versus control
Method: as §2
JCFs were seeded at a density of 10,000 cells per […] on UV-sterilized glass coverslips. After 48 hours, the medium was discarded and the samples were washed with Dulbecco's PBS (DPBS). The samples were fixed in 4% paraformaldehyde for 1 hour and then rinsed thrice with DPBS. The cells were then permeabilized with 0.5% Triton X for 5 minutes at room temperature and blocked with 10% goat serum for 30 minutes. The samples were then incubated with an anti-α-SMA mouse monoclonal antibody (Abcam) at a 1:100 dilution in DPBS overnight at 4° C. After washing in DPBS, the cells were blocked with goat serum for 30 minutes at 37° C. and then incubated with a fluorophore-conjugated goat anti-mouse IgG secondary antibody (488 excitation) (Life Technologies) at a 1:100 dilution for 30 minutes at 37° C. Cells were then washed thrice with DPBS, incubated with phalloidin at a 1:100 dilution for 30 minutes at 37° C., and then mounted with 4′,6-diamidino-2-phenylindole (DAPI)-containing mounting medium. Stained sections were imaged using an Olympus FV1000 confocal microscope. Percent positive α-SMA (immunostained/DAPI-stained×100) was evaluated in at least 4 microscope fields using ImageJ.

[9] = tested on: fibrosis in a rat stifle joint immobilization model; conditions: in vivo; cited from earlier work
[10] = tested on: normal wound healing; conditions: therapeutic dose levels; cited from earlier work

| Structure (SMILES) | PTOA progression at 6 months [1] | PTOA progression at 12 months [2] | Maximum dose carried in PLGA pellets [3] | Maximum torque (joint stiffness) [4] | Maximum torque (joint stiffness) ([4]; listed as sulfasalazine) | Dissipated energy ([4]; versus control) | Anterior drawer stiffness / A-P laxity [5] | Synovial intimal thickness [6] | Synovial intimal thickness ([6]; listed as sulfasalazine) | Maximum compaction at 48 hours [7] | Maximum compaction at 48 hours ([7]; listed as Sulfasalazine) | Compaction rate [7] | Percent α-SMA positive [8] | Percent α-SMA positive ([8]; listed as sulfasalazine) | Maximum compaction at 48 hours ([7]; listed as beta-aminopropionitrile) | Development of fibrosis [9] | Effect on normal wound healing [10] |
| --- | --- | --- | --- | --- | --- | --- | --- | --- | --- | --- | --- | --- | --- | --- | --- | --- | --- |
| CCC1(CCC(C)C)C(=O)NC(=O)NC1=O [amobarbital] | dramatically forestalled the progression of PTOA; also recorded: highly effective in preventing changes | moderate degenerative changes were observed; also recorded: less effective | – | – | – | – | – | – | – | – | – | – | – | – | – | – | – |
| O=C(O)c1cc(/N=N/c2ccc(S(=O)(=O)Nc3ccccn3)cc2)ccc1O [SSZ, Sulfasalazine] | – | – | 120±3.6 μg SSZ/mg pellet | significantly less stiff than controls | reduced stiffness | significantly reduced | significantly stiffer than controls | inhibited significantly | significantly lower than control | significantly lower | significantly inhibited this effect | significantly lower compaction rate | significantly lower than control | significantly higher in control versus normal (p=0.0021) and versus sulfasalazine | – | – | – |
| N#CCCN [BAPN, beta-amino propionitrile] | – | – | 126±5 μg BAPN/mg pellet | Neither BAPN nor CHP had significant effects | – | – | – | – | – | significantly lower | – | somewhat lower than control | nearly significantly lower | – | significantly inhibited this effect | prevented the development of fibrosis | Neither CHP nor BAPN retarded normal wound healing |
| O=C(O)[C@@H]1C[C@@H](O)CN1 (relative stereo) [CHP, Cis-hydroxyproline] | – | – | 250±3.2 μg CHP/mg pellet | Neither BAPN nor CHP had significant effects | – | – | – | – | – | – | – | somewhat lower than control | only slightly lower than control | – | – | – | Neither CHP nor BAPN retarded normal wound healing |
